The results in this text go back to patent US20060287528A1, “Novel crystalline forms of a phosphoric acid salt of a dipeptidyl peptidase-iv inhibitor” (priority 2003, published 2006).

As a reminder, the solubility is the dissolved amount per volume that the medium holds. The low end stands for a poorly soluble substance, the high end for a readily soluble substance.

Series [1] can be described thus: Solid-state stability and interconversion of the crystalline forms. The settings on record: for temperature range in which the polymorph is the stable form (enantiotropic transition temperature): Form I / Form III enantiotropic pair, transition about 34° C. Type of series: physicochemical.
Another series is described as follows: Solubility in water. Format: physicochemical.

For `N[C@@H](CC(=O)N1CCn2c(nnc2C(F)(F)F)C1)Cc1cc(F)c(F)cc1F` [anhydrate Form I], the “temperature range in which the polymorph is the stable form (enantiotropic transition temperature)” value in series [1] was “above 34 °C”. The solubility in the series “Solubility in water” is greater than 120 mg/mL.
Turning to `N[C@@H](CC(=O)N1CCn2c(nnc2C(F)(F)F)C1)Cc1cc(F)c(F)cc1F` [desolvated anhydrate Form II], the “time for conversion to anhydrate Form I or Form III or mixtures thereof” value in series [1] (at about 45° C., form is metastable) is recorded as “about 2 h”.
For the compound `N[C@@H](CC(=O)N1CCn2c(nnc2C(F)(F)F)C1)Cc1cc(F)c(F)cc1F` [anhydrate Form III], in series [1], the “temperature range in which the polymorph is the stable form (enantiotropic transition temperature)” value was “below 34 °C”.
